From paper PMC11277004, “Di- and Triselenoesters—Promising Drug Candidates for the Future Therapy of Triple-Negative Breast Cancer” (International Journal of Molecular Sciences, 2024)
Read-outs that look alike come from different tables or passages of the source.

Columns and labels:
[1] = system: caspase 9; assay: Caspase 9 activity (FAM-FLICA, flow cytometry), MCF-7; assay type: cell-based, human; settings: 24 h
Method: (§1) The FAM-FLICA® Caspase Assay kits (all from ImmunoChemistry Technologies, Bloomington, MN, USA) and flow cytometer (BD FACSCanto II, BD Biosciences Systems, San Jose, CA, USA) were used to evaluate the activity of caspase 3/7, 8, and 9. MCF-7 and MDA-MB-231 cells were treated with selenoesters under the study (EDAG-1 and EDAG-8) and a reference agent (cisplatin) at two different concentrations (0.5 and 1 µM; treatment duration: 24 h). Following this, cells were collected, washed twice with cold PBS, and resuspended in an Apoptosis Wash Buffer to a final concentration of 5 × 10^5 cells/mL. In the next step, 290 µL each of cell suspension was taken and transferred into tubes. Then 10 µL of FLICA solution diluted immediately before use (1:5 v/v, using PBS) was added to the cells, mixed by pipetting, and incubated in the dark for 1 h at 37 °C. After this time, the cells were washed twice with 2 mL Apoptosis Wash Buffer, centrifuged, and resuspended in 300 µL of the buffer. Thus, prepared samples were immediately analyzed using a BD FACSCanto II flow cytometer (10,000 events) with the FACSDiva 6.0 software (both from BD Biosciences Systems, San Jose, CA, USA). The equipment calibration was carried out using the BD Cytometer Setup and Tracking Beads (BD Biosciences, San Diego, CA, USA).

[2] = system: MCF-7 breast cancer cells; assay: Mitochondrial membrane potential (JC-1, flow cytometry), MCF-7; assay type: cell-based, human; settings: 24 h
Method: The entire cell staining and cytometric analysis procedures were performed according to the instructions provided with the kit. In the first step, the cells (1 × 10^6 cells/sample) were washed and resuspended in 0.5 mL of buffer containing 10 µg/mL JC-1 dye. Incubation was carried out for 15 min at room temperature, protected from light. Afterward, the cells were washed twice with buffer, resuspended in 0.5 mL PBS, and immediately analyzed using a flow cytometer (BD FACSCanto II; 10,000 events measured) and the FACSDiva 6.0 software (BD Biosciences Systems, San Jose, CA, USA) to count the percentage of cells with reduced ΔΨm. The equipment was calibrated with the BD Cytometer Setup and Tracking Beads (BD Biosciences, San Diego, CA, USA).

[3] = system: p53; assay: p53 protein expression by flow cytometry, MDA-MB-231; assay type: cell-based, human; settings: 24 h
Method: (§2) For this purpose, Akt (PE), Bax (FITC), Bcl-2 (Alexa Fluor® 647), LC3A/B (Alexa Fluor® 488), and p53 (Alexa Fluor® 488) antibodies conjugated to different fluorochromes (all from Cell Signaling Technology, Beverly, MA, USA) were utilized. Each assay was performed according to the manufacturer's protocol available on their website. After incubation with the tested compounds, the cells were centrifuged, resuspended in 4% formaldehyde (100 μL/1 × 10^6 cells), and fixed for 15 min at room temperature. Afterward, to remove the formaldehyde, the cells were washed by centrifugation with excess PBS and the permeabilization step was triggered. For this purpose, ice-cold 90% methanol was added to the pre-chilled cell pellet, gently vortexed, and incubated for 1 h on ice. Later, the cells were washed by centrifugation with excess PBS again, resuspended in 100 μL of 1:100 diluted primary antibody (stain buffer was used for dilution), and incubated for 1 h at room temperature in the dark. After incubation, the cells were washed, resuspended in 300 μL PBS, and immediately tested with a flow cytometer (BD FACSCanto II, BD Biosciences Systems, San Jose, CA, USA; 10,000 events measured). The obtained results were analyzed using the FACSDiva 6.0 software (BD Biosciences Systems, San Jose, CA, USA). In the case of the p53 protein, the MRF values were obtained first during the flow cytometer readout utilizing FACSDiva software and later analyzed using FCS Express 7 (De Novo Software, Pasadena, CA, USA). The equipment calibration was performed using the BD Cytometer Setup and Tracking Beads (BD Biosciences, San Diego, CA, USA).

[4] = system: caspase 7; assay: Caspase 3/7 activity (FAM-FLICA, flow cytometry), MCF-7; assay type: cell-based, human; settings: MCF-7 (lack caspase 3), 24 h
Method: as §1

[5] = system: LC3A/B; assay: LC3A/B protein level by flow cytometry, MCF-7; assay type: cell-based, human; settings: 24 h
Method: as §2

[6] = system: Bax; assay: Bax protein level by flow cytometry, MDA-MB-231; assay type: cell-based, human; settings: 24 h
Method: as §2

[7] = system: caspase 3/7; assay: Caspase 3/7 activity (FAM-FLICA, flow cytometry), MDA-MB-231; assay type: cell-based, human; settings: 24 h
Method: as §1

[8] = system: MCF-10A normal human breast epithelial cells; assay: DNA biosynthesis assay ([3H]-thymidine incorporation), MCF-10A; assay type: cell-based; settings: read-out: IC50, DNA biosynthesis
Method: The study of the antiproliferative properties (intensity of [^3H]-thymidine incorporation into cell DNA) of the tested derivatives against tested cell lines (MCF-7, MDA-MB-231, MCF-10A) was performed after 24 h incubation with varied concentrations of the tested compounds in the medium (0.5–5 µM) in 6-well plates (baseline seeding density: 5 × 10^5 cells/well). After 24 h the medium was removed, the cells were washed with PBS (Corning, Kennebunk, ME, USA), and a fresh medium was added. After that, the cells were treated with 0.5 µCi of tritium-labeled thymidine (specific activity 7 Ci/mmol) by incubating them with this compound for 4 h under the same conditions as the cell culture. In the first step, the medium was removed, and the cell monolayer was washed twice with 1 mL of 0.05 M Tris-HCl buffer pH 7.4 containing 0.11 M NaCl. To denature proteins, the cells were washed twice with 1 mL of 5% trichloroacetic acid (TCA) solution. Finally, cell lysis was performed by adding 1 mL of 0.1 M sodium hydroxide (NaOH) solution containing 1% sodium dodecyl sulfate (SDS) to each well. After five minutes, the obtained cell lysates were transferred to scintillation vials with 2 mL of scintillation fluid added to them beforehand. Radioactivity was measured using the Scintillation Counter 1900 TR, TRI-CARB (Packard, Perkin Elmer, Inc., San Jose, CA, USA). The intensity of DNA biosynthesis in the analyzed cells was expressed in terms of dpm/well. The result of the radioactivity measurement in the control cells (without the addition of tested compounds) was taken as 100%, while the values of cells incubated with the tested compounds were presented as a percentage of the control value.

[9] = system: p53; assay: p53 protein expression by flow cytometry, MCF-7; assay type: cell-based, human; settings: 24 h
Method: as §2

Structure (SMILES) | Active caspase 9 ± SD (cells) ([1]; MCF-7, 0.5 μM) [%] | Active caspase 9 ± SD (cells) ([1]; MCF-7, 1 μM) [%] | Decreased ΔΨm ± SD (cells) ([2]; MCF-7, 0.5 μM) [%] | Decreased ΔΨm ± SD (cells) ([2]; MCF-7, 1 μM) [%] | p53 protein expression, MRF ([3]; MDA-MB-231, 0.5 μM) | p53 protein expression, MRF ([3]; MDA-MB-231, 1 μM) | Active caspase 7 ± SD (cells) ([4]; 0.5 μM) [%] | Active caspase 7 ± SD (cells) ([4]; 1 μM) [%] | LC3A/B positive cells ± SD ([5]; MCF-7, 0.5 μM) [%] | LC3A/B positive cells ± SD ([5]; MCF-7, 1 μM) [%] | Bax positive cells ± SD ([6]; MDA-MB-231, 0.5 μM) [%] | Bax positive cells ± SD ([6]; MDA-MB-231, 1 μM) [%] | Active caspase 3/7 ± SD (cells) ([7]; MDA-MB-231, 0.5 μM) [%] | Active caspase 3/7 ± SD (cells) ([7]; MDA-MB-231, 1 μM) [%] | IC50 ([8]; 24 h incubation) [nM] | p53 protein expression, MRF ([9]; MCF-7, 0.5 μM) | p53 protein expression, MRF ([9]; MCF-7, 1 μM) | IC50 ([8]; Homo sapiens, 24 h) [nM]
N.N.[Cl][Pt][Cl] [Cisplatin, reference compound] | 5.9 ± 0.1 | 6.1 ± 0.6 | 6.3 ± 1.6 | 7.2 ± 0.4 | 375.5 ± 3.5 | 423.5 ± 2.1 | 4.3 ± 0.3 | 4.6 ± 0.3 | 3.3 ± 0.5 | 3.5 ± 0.4 | 1.3 ± 0.3 | 1.4 ± 0.1 | 5.2 ± 0.5 | 5.2 ± 0.6 | > 5000 | 375.8 ± 19.1 | 380.5 ± 20.4 | 
CC(=O)C[Se]C(=O)c1ccc(C(=O)[Se]CC(C)=O)cc1 [EDAG-1, Se,Se-bis(2-oxopropyl) benzene-1,4-bis(carboselenoate)] | 7.1 ± 0.7 | 12.8 ± 1.4 | 10.0 ± 0.4 | 15.3 ± 1.1 | 559.3 ± 63.1 | 593.0 ± 10.8 | 5.7 ± 0.5 | 6.9 ± 0.5 | 9.9 ± 0.9 | 12.0 ± 1.4 | 12.5 ± 2.3 | 37.8 ± 5.1 | 9.2 ± 0.5 | 12.5 ± 0.4 |  | 404.8 ± 23.7 | 407.8 ± 22.0 | 720 ± 70
CC(=O)C[Se]C(=O)c1cc(C(=O)[Se]CC(C)=O)cc(C(=O)[Se]CC(C)=O)c1 [EDAG-8, Se,Se,Se-tris-(2-oxopropyl) benzene-1,3,5-tris-(carboxyselenoate)] | 15.5 ± 0.5 | 22.8 ± 2.4 | 18.7 ± 0.9 | 54.2 ± 4.6 | 624.8 ± 49.7 | 661.5 ± 18.6 | 7.4 ± 0.8 | 16.3 ± 2.6 | 11.9 ± 1.1 | 17.4 ± 1.3 | 34.5 ± 3.4 | 60.3 ± 8.8 | 19.7 ± 0.6 | 32.2 ± 2.9 |  | 421.3 ± 24.5 | 450.8 ± 28.7 | 930 ± 70
